Data on 1 molecule can be found in US11656221B2, “Methods to identify modulators of actin-binding proteins” (Regents of the University of Minnesota, priority 2019, dated 2023).

Entries after “also recorded” stand apart in the source; their conditions may differ.

The test system of one data set is HEK293-6E cells. The experiment in a line: Trypan blue cell viability assay. It counts as cell-based. The following applies: 3 μM, 3 hrs. Here is the method: HEK293-6E cell viability was measured using trypan blue (0.03%) staining and a Countess Automated Cell counter (Invitrogen). Non-transfected HEK293-6E cells were spun at 100×g for 5 min at 21° C., and resuspended in 10 mL of PBS. The centrifugation and resuspension were repeated twice more. Final cell concentration was 1×10^6 cells/mL. Cells were incubated with 2% DMSO, or 3-50 μM compound (as indicated) for 3 hrs at room temperature (21° C.). After addition of 100 μL of 0.06% trypan blue solution in PBS, 10 μL was loaded on a slide and injected into the cell counter, and cell viability was measured.

In data set [1] the target is T1, Lifeact-mCherry binding to F-actin (Oryctolagus cuniculus, UniProt P68135).
T1 construct: Actin was purified from acetone powder derived from the psoas muscle; made in house; host or cells: actin from rabbit psoas muscle; Lifeact-mCherry from E. coli, pE-SUMOpro
The experiment in a line: F-actin and Lifeact-mCherry co-sedimentation assay. Further details: species or system New Zealand white rabbit (Oryctolagus cuniculus). The following applies: 3 μM, 2 μM Lifeact-mCherry, 30 μM F-actin. Here is the method:
(§1) Actin was purified from acetone powder derived from the psoas muscle of New Zealand white rabbit (Oryctolagus cuniculus). Filamentous (F)-actin was stored for up to 3 days on ice before use in binding assays. Within an hour of the binding assay, the F-actin was clarified at 100,000×g at 4° C. for 10 min prior to setting up binding assays. The L253P β-III-spectrin ABD was expressed in E. coli BL21(DE3) (Novagen). The ABD was purified and the His-SUMO tag proteolytically removed, as previously described, except size-exclusion chromatography was not performed due to the high purity of the ABD protein. Lifeact-mCherry protein was similarly prepared. A Bradford assay was performed to determine clarified F-actin and ABD protein concentrations.
(§2) F-actin and ABD binding assays were performed as previously described. In brief, binding assays used 1 μM ABD protein, 1 μM F-actin and 1-50 μM compound (as indicated) or DMSO control for a total reaction volume of 60 μL in F-buffer containing 10 mM Tris, pH 7.5, 150 mM NaCl, 0.5 mM ATP, 2 mM MgCl2, and 1 mM DTT. Following 30 min incubation at room temperature (21° C.). F-actin was pelleted using centrifugation at 100,000×g at 25° C. for 30 min. Unbound ABD in the supernatant was measured following SDS-PAGE and Coomassie blue staining in accord. In addition, control co-sedimentations assays that lacked actin were performed to test if compounds cause ABD aggregation. F-actin and Lifeact-mCherry binding assays were undertaken with 2 μM Lifeact-mCherry, 30 μM F-actin and 1-50 μM compound (as indicated) or DMSO control for a total reaction volume of 80 μL in F-buffer. For a no-actin binding control, an assay sample with no F-actin was also set up. Binding reactions were allowed to reach equilibrium at room temperature (21° C.) for 30 min and then F-actin was pelleted by centrifugation at 100,000×g at 25° C. for 30 min. The amount of unbound Lifeact-mCherry was sampled by loading 7 μL of spin supernatant on a low volume black bottom 384-well plate (Greiner). Amount of mCherry was determined by acquiring fluorescence spectrum peak intensity at ˜600 nm using a spectral unmixing plate reader (Fluorescence Innovations, Inc) equipped with a 532 nm laser (Laserglow Technologies, Ontario, Canada) for excitation, 532 nm longpass filter for emission, and PMT for emission detection. The fraction of Lifeact-mCherry bound to F-actin was determined by subtracting from one the fraction of supernatant fluorescence intensity relative to the no-actin control sample, using the following equation:
[formula] • Where Fcontrol/DMSO is the peak mCherry fluorescence of assay samples containing compound or DMSO control, and Fno-actin is the peak mCherry fluorescence of assay samples that contained no F-actin. 2.9 Trypan Blue Cell Viability Assays

Data set [2] concerns the target T2, ABD-L253P (L253P β-III-spectrin ABD) binding to F-actin (Homo sapiens, UniProt O15020, L253P).
T2 construct: His-SUMO (cleaved yes); made in house; host or cells: E. coli BL21(DE3), pE-SUMOpro; actin from rabbit psoas muscle
The experiment in a line: F-actin and ABD co-sedimentation assay. The note with it: 3 μM, 1 μM ABD, 1 μM F-actin. The procedure:
as §1
as §2, with “F-actin and Lifeact-mCherry binding assays were undertaken with 2 μM Lifeact-mCherry, 30 μM F-actin and 1-50 μM compound (as indicated) or DMSO control for a total reaction volume of 80 μL in F-buffer. For a no-actin binding control, an assay sample with no F-actin was also set up. Binding reactions were allowed to reach equilibrium at room temperature (21° C.) for 30 min and then F-actin was pelleted by centrifugation at 100,000×g at 25° C. for 30 min. The amount of unbound Lifeact-mCherry was sampled by loading 7 μL of spin supernatant on a low volume black bottom 384-well plate (Greiner).” left out, “equation: […]” for “equation:”

Another data set addresses actin. The note with it: actin sedimentation assay; read-out: previously reported affinity value; cited from earlier work.
Another data set deals with T3, ABD-L253P (Homo sapiens, UniProt O15020, L253P).
T3 construct: His-SUMO (cleaved yes); made in house; host or cells: E. coli BL21(DE3), pE-SUMOpro
T3 sequence (O15020 1-284 L253P): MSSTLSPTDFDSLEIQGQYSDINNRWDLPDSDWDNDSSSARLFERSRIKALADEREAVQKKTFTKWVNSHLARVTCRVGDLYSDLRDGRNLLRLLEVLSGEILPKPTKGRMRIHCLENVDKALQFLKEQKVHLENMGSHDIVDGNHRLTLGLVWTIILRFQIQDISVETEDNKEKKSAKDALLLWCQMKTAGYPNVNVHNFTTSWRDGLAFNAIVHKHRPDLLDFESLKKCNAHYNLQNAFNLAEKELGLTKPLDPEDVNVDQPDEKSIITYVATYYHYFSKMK
Kind of data set: Sedimentation of ABD L253P without actin (aggregation). The note with it: 1.6 μM. Here is the method: as §2, with “equation: […]” for “equation:”
In addition to a reduction in cell viability, the primary and counter screen may be sensitive to compounds that promote ABD-L253P protein aggregation. […] Our ABD-L253P to actin co-sedimentation assay is unlikely to be sensitive to ABD aggregation, as it is set up to monitor maximal sedimentation of ABD-L253P with actin at ˜90% ABD-L253P co-sedimenting. To directly measure the impact of 10 μM Hit compounds on ABD aggregation, we repeated the ABD-actin co-sedimentation without actin present.

T2 sequence (O15020 1-284 L253P): as above

Turning to `CO[C@H]1C[C@H](CC[C@H](C)[C@H](O)[C@H](C)[C@H]2OC(=O)/C=C/C(C)=C/C[C@H](O)C[C@@H]3C=CC[C@@H](C[C@H](OC)[C@@H](C)[C@@H](O)C[C@@H](O)[C@H](C)[C@@H]([C@@H](C)[C@@H](O)[C@@H](C)CC[C@H]4C[C@H](OC)C[C@H](C)O4)OC(=O)/C=C/C(C)=C/C[C@H](O)C[C@@H]4C=CC[C@@H](C[C@H](OC)[C@@H](C)[C@@H](O)C[C@@H](O)[C@@H]2C)O4)O3)O[C@@H](C)C1` [swinholide A], the “effect on HEK293-6E cell viability” value in the data set with HEK293-6E cells is “did not significantly alter and not”. Moreover, the “effect on Lifeact-mCherry binding with actin” value in data set [1] is reported as “did reduce; also recorded: reduce Lifeact-mCherry binding with actin”. Besides, the “effect on ABD-L253P binding to actin” value is “did reduce; also recorded: ablation” in data set [2] and “reduce ABD-L253P binding to actin” in data set [2] (listed as swiholide A). In addition, the Kd at actin is 50 nM. On ABD-L253P, the “ABD sedimentation without actin” value was “does not alter ABD sedimentation”.
